# Results: PubChem BioAssay (NCI)
#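 Each compound was tested at five concentrations against cells in 96-well plates for 48 hours. The concentration for 50% growth inhibition is given as GI50. TGI marks complete inhibition of growth.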
# Columns and labels:
# Experiment in all cases: NCI anticancer screen, dose series, 48 h
# [1] = system: MDA-MB-231 breast
# [2] = system: MDA-MB-435
# [3] = system: PC-3 prostate
# [4] = system: OVCAR-4 ovarian
# [5] = system: HL-60(TB) leukemia
# [6] = system: K-562 leukemia
# [7] = system: UACC-62 melanoma
# [8] = system: CCRF-CEM leukemia
# [9] = system: HOP-62 NSCLC
# [10] = system: OVCAR-8 ovarian
# [11] = system: CAKI-1 renal
# [12] = system: SNB-19 CNS
# [13] = system: A498 renal
# [14] = system: MCF7 breast
# [15] = system: MOLT-4 leukemia
# [16] = system: SN12C renal
# [17] = system: LOX IMVI melanoma
# [18] = system: BT-549 breast
# [19] = system: UO-31 renal
# [20] = system: TK-10 renal
# [21] = system: NCI-H460 lung
# [22] = system: SNB-75 CNS
# [23] = system: UACC-257 melanoma
# [24] = system: NCI-H522 lung
# [25] = system: SK-MEL-28 melanoma
# [26] = system: DU-145 prostate
# [27] = system: NCI-H23 lung
# [28] = system: KM12 colon
# [29] = system: EKVX NSCLC
# [30] = system: NCI/ADR-RES ovarian
# [31] = system: T-47D breast
# [32] = system: SK-MEL-2 melanoma
# [33] = system: OVCAR-3 ovarian
# [34] = system: SK-MEL-5 melanoma
# [35] = system: SK-OV-3 ovarian
# [36] = system: OVCAR-5 ovarian
# [37] = system: HCC-2998 colon
# [38] = system: SF-539 CNS
# [39] = system: SW-620 colon
# [40] = system: MALME-3M melanoma
# [41] = system: M14 melanoma
# [42] = system: COLO 205 colon
# [43] = system: IGROV1 ovarian
# [44] = system: RPMI-8226 leukemia
# [45] = system: 786-0 renal
# [46] = system: ACHN renal
# [47] = system: HCT-116 colon
# [48] = system: U251 CNS
# [49] = system: HCT-15 colon
# [50] = system: A549 NSCLC
# [51] = system: HS 578T breast
# [52] = system: RXF 393 renal
# [53] = system: SF-268 CNS
# [54] = system: HT29 colon
# [55] = system: NCI-H226 lung
# [56] = system: SF-295 CNS
smiles,measurement,setting,value
COc1cc2c(cc1OCCCN1CCN(CCCOc3cc4c(cc3OC)C(=O)N3CCC[C@H]3C=N4)CC1)C=CC(C)(C)O2,GI50,[1],1.31 µM
same,TGI,[1],2.58 µM
same,GI50,[2],1.24 µM
same,TGI,[2],2.55 µM
same,GI50,[3],0.804 µM
same,TGI,[3],2.09 µM
same,GI50,[4],1.56 µM
same,TGI,[4],3.53 µM
same,GI50,[5],0.252 µM
same,TGI,[5],0.738 µM
same,GI50,[6],0.32 µM
same,TGI,[6],1.03 µM
same,GI50,[7],1.42 µM
same,TGI,[7],2.73 µM
same,GI50,[8],0.288 µM
same,GI50,[9],1.25 µM
same,TGI,[9],2.5 µM
same,GI50,[10],1.38 µM
same,TGI,[10],3.85 µM
same,GI50,[11],0.827 µM
same,TGI,[11],2.12 µM
same,GI50,[12],2.22 µM
same,GI50,[13],1.15 µM
same,TGI,[13],2.37 µM
same,GI50,[14],0.423 µM
same,TGI,[14],1.69 µM
same,GI50,[15],0.249 µM
same,TGI,[15],0.765 µM
same,GI50,[16],0.584 µM
same,TGI,[16],1.95 µM
same,GI50,[17],0.755 µM
same,TGI,[17],2.09 µM
same,GI50,[18],0.941 µM
same,TGI,[18],2.47 µM
same,GI50,[19],1.51 µM
same,TGI,[19],3.49 µM
same,GI50,[20],1.46 µM
same,TGI,[20],2.87 µM
same,GI50,[21],1.1 µM
same,TGI,[21],2.32 µM
same,GI50,[22],1.26 µM
same,TGI,[22],2.74 µM
same,GI50,[23],1.82 µM
same,TGI,[23],3.52 µM
same,GI50,[24],1.48 µM
same,TGI,[24],4.27 µM
same,GI50,[25],1.51 µM
same,TGI,[25],2.83 µM
same,GI50,[26],0.889 µM
same,TGI,[26],2.1 µM
same,GI50,[27],1.53 µM
same,TGI,[27],3.04 µM
same,GI50,[28],0.904 µM
same,TGI,[28],2.14 µM
same,GI50,[29],1.36 µM
same,TGI,[29],2.75 µM
same,GI50,[30],2.41 µM
same,TGI,[30],5.31 µM
same,GI50,[31],0.792 µM
same,TGI,[31],2.43 µM
same,GI50,[32],1.58 µM
same,TGI,[32],2.97 µM
same,GI50,[33],1.36 µM
same,TGI,[33],2.67 µM
same,GI50,[34],1.27 µM
same,TGI,[34],2.53 µM
same,GI50,[35],1.61 µM
same,TGI,[35],2.99 µM
same,GI50,[36],1.7 µM
same,TGI,[36],3.18 µM
same,GI50,[37],0.683 µM
same,TGI,[37],2.07 µM
same,GI50,[38],1.26 µM
same,TGI,[38],2.51 µM
same,GI50,[39],0.634 µM
same,TGI,[39],1.93 µM
same,GI50,[40],1.9 µM
same,TGI,[40],3.65 µM
same,GI50,[41],1.34 µM
same,TGI,[41],2.62 µM
same,GI50,[42],1.21 µM
same,TGI,[42],2.61 µM
same,GI50,[43],0.606 µM
same,TGI,[43],> 100 µM
same,GI50,[44],0.232 µM
same,TGI,[44],0.699 µM
C=C(CNC(=O)Nc1ccc(-c2ccccc2)cc1)c1ccc(C(=O)Nc2ccccc2N)cc1,GI50,[1],31.1 µM
same,TGI,[1],> 100 µM
same,GI50,[2],89.8 µM
same,TGI,[2],> 100 µM
same,GI50,[3],51.5 µM
same,TGI,[3],> 100 µM
same,GI50,[45],> 100 µM
same,TGI,[45],> 100 µM
same,GI50,[46],> 100 µM
same,TGI,[46],> 100 µM
same,GI50,[4],> 100 µM
same,TGI,[4],> 100 µM
same,GI50,[5],89.7 µM
same,TGI,[5],> 100 µM
same,GI50,[6],40.6 µM
same,TGI,[6],> 100 µM
same,GI50,[7],> 100 µM
same,TGI,[7],> 100 µM
same,GI50,[8],7.32 µM
same,TGI,[8],> 100 µM
same,GI50,[47],> 100 µM
same,TGI,[47],> 100 µM
same,GI50,[9],49.1 µM
same,TGI,[9],> 100 µM
same,GI50,[10],58.9 µM
same,TGI,[10],> 100 µM
same,GI50,[11],> 100 µM
same,TGI,[11],> 100 µM
same,GI50,[12],98.7 µM
same,TGI,[12],> 100 µM
same,GI50,[48],47.9 µM
same,TGI,[48],> 100 µM
same,GI50,[49],70.4 µM
same,TGI,[49],> 100 µM
same,GI50,[13],37.4 µM
same,TGI,[13],> 100 µM
same,GI50,[14],> 100 µM
same,TGI,[14],> 100 µM
same,GI50,[15],30.5 µM
same,TGI,[15],> 100 µM
same,GI50,[16],> 100 µM
same,TGI,[16],> 100 µM
same,GI50,[50],> 100 µM
same,TGI,[50],> 100 µM
same,GI50,[17],> 100 µM
same,TGI,[17],> 100 µM
same,GI50,[51],81.7 µM
same,TGI,[51],> 100 µM
same,GI50,[52],23.7 µM
same,TGI,[52],59 µM
same,GI50,[19],> 100 µM
same,TGI,[19],> 100 µM
same,GI50,[20],> 100 µM
same,TGI,[20],> 100 µM
same,GI50,[21],> 100 µM
same,TGI,[21],> 100 µM
same,GI50,[53],> 100 µM
same,TGI,[53],> 100 µM
same,GI50,[22],30.6 µM
same,TGI,[22],96.2 µM
same,GI50,[54],> 100 µM
same,TGI,[54],> 100 µM
same,GI50,[23],> 100 µM
same,TGI,[23],> 100 µM
same,GI50,[24],15 µM
same,TGI,[24],99 µM
same,GI50,[25],48.3 µM
same,TGI,[25],> 100 µM
same,GI50,[26],27.7 µM
same,TGI,[26],> 100 µM
same,GI50,[27],85.3 µM
same,TGI,[27],> 100 µM
same,GI50,[28],10.8 µM
same,TGI,[28],> 100 µM
same,GI50,[29],> 100 µM
same,TGI,[29],> 100 µM
same,GI50,[55],> 100 µM
same,TGI,[55],> 100 µM
same,GI50,[30],58.3 µM
same,TGI,[30],> 100 µM
same,GI50,[31],> 100 µM
same,TGI,[31],> 100 µM
same,GI50,[32],> 100 µM
same,TGI,[32],> 100 µM
same,GI50,[33],> 100 µM
same,TGI,[33],> 100 µM
same,GI50,[34],94.3 µM
same,TGI,[34],> 100 µM
same,GI50,[35],25.9 µM
same,TGI,[35],74.8 µM
same,GI50,[36],> 100 µM
same,TGI,[36],> 100 µM
same,GI50,[37],> 100 µM
same,TGI,[37],> 100 µM
same,GI50,[56],> 100 µM
same,TGI,[56],> 100 µM
same,GI50,[38],> 100 µM
same,TGI,[38],> 100 µM
same,GI50,[39],> 100 µM
same,TGI,[39],> 100 µM
same,GI50,[40],53.7 µM
same,TGI,[40],> 100 µM
same,GI50,[41],90.9 µM
same,TGI,[41],> 100 µM
same,GI50,[42],> 100 µM
same,TGI,[42],> 100 µM
same,GI50,[44],20.4 µM
same,TGI,[44],> 100 µM
